Reference: paper PMC4589331, “Interactions of L-3,5,3'-Triiodothyronine, Allopregnanolone, and Ivermectin with the GABAA Receptor: Evidence for Overlapping Intersubunit Binding Modes” (PLoS ONE, 2015)

What was measured:
[1] = target: T1, α1β1γ2 GABAA receptor (Homo sapiens, UniProt P14867+P18505+P18507); assay: Two-electrode voltage-clamp recording of GABAA receptors expressed in Xenopus oocytes; format: cell-based
T1 construct: GeneCopoeia (γ2 cDNA); host or cells: Xenopus laevis oocytes injected with cRNAs, ratio α1:β1:γ2 1:1:2
Protocol: The cDNAs encoding human GABAA receptor α1 and β1 subunits were acquired from American Type Culture Collection (ATCC, Manassas, Virginia), while those encoding γ2 subunits were acquired from GeneCopoeia (Rockville, Maryland). Restriction enzymes for the cDNAs came from New England Biolabs (Ipswich, MA).
HindIII-digested and XholI-digested DNA templates encoding human α1, β1, or γ2 GABAA receptor subunits (4 μg) were transcribed through the mMESSAGE mMACHINE T7 kit from Ambion (Austin, TX). […] The solution was then treated with RNase-free DNase I and precipitated with lithium chloride. The cRNAs were dissolved in double-distilled diethyl-pyrocarbonate (DEPC) treated water to a final concentration of ~ 1–2 μg/ μL. Subunit combinations were aliquoted for the specific receptor type with total concentration remaining ~ 1–2 μg/ μL.
(§1) X. laevis were anesthetized by placing them in solution of 1 g tricaine methanesulfonate (MS222) per 500 mL in de-chlorinated water. A small incision in the abdomen was made 1 cm away from and parallel to the midline and lobes of ovary were removed. The lobes were gently agitated at room temperature with collagenase (2 mg/mL) in calcium free OR-2 (82.5 mM NaCl, 2.5 mM KCl, 1 mM MgCl2, 5 mM HEPES, pH adjusted to 7.6 with NaOH) until the ovarian epithelium and the follicular cell layer were removed (~2 hrs). Oocytes were checked for proper size and shape, color, and for the presence of distinct animal and vegetal poles. Viable oocytes were placed in ND96 solution (96 mM NaCl, 2mM KCl, 1 mM MgCl2, 1 mM CaCl2, 5 mM HEPES, pH adjusted to 7.6 with NaOH) and the oocytes were injected with 46 nL cRNAs (1–2 μg/μL) expressing the α1β1γ2 construct using a digital microdispenser (Drummond ‘Nanoject II’), with the ratio α1: β1: γ2 1:1:2. […] Injected oocytes were incubated at 18°C in a sterile solution containing Leibovitz L-15 Medium supplemented with 10 mM HEPES, 50 mg/L gentamicin and 50 mg/L tetracycline at pH 7.4.
After 24 h following injections, oocytes were placed in a recording chamber perfused continuously with ND96. All drugs were perfused into the chamber through a gravity flow system (~5 mL/min). Oocytes were impaled with two 3 M KCl-filled glass microelectrodes (~ 1–2 MΩ). Oocytes were then voltage-clamped at -60 mV with a Model OC-725C Oocyte Clamp (Warner Instruments, Hamden, CT). Currents were recorded using the iWorx LabScribe v1.959 software. The peak amplitudes of the responses were used for data analysis.
Oocytes were perfused with ND96 between trials until current returned to baseline (approximately 10–15 minutes).
Graph Pad Prism, version 5.00 (La Jolla, CA), was used for all statistical analysis of two-electrode voltage-clamp data and for fitting the curves by nonlinear regression for determinations of EC50/IC50, min and max response values, and Hill coefficients. To determine the type of competition, a Schild plot analysis was applied to the competitive binding data, utilizing a linear regression fit.

[2] = system: uninjected oocytes; assay: Two-electrode voltage-clamp recording of uninjected oocytes; format: cell-based, Xenopus laevis; conditions: data not shown
Protocol: as §1
After 24 h following injections, oocytes were placed in a recording chamber perfused continuously with ND96. All drugs were perfused into the chamber through a gravity flow system (~5 mL/min). […] Currents were recorded using the iWorx LabScribe v1.959 software. […]

T1 sequence (P14867 28-456): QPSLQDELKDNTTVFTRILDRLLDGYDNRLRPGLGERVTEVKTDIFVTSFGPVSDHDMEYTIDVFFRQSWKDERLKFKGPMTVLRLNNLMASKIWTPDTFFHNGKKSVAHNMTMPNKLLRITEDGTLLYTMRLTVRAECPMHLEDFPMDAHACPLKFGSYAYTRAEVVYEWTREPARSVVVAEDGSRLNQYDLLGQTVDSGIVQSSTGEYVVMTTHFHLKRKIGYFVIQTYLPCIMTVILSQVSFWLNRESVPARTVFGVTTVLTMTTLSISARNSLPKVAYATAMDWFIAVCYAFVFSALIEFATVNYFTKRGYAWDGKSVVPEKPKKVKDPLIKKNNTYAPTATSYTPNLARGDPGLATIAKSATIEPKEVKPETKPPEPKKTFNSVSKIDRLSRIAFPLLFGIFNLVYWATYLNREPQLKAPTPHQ
T1 sequence (P18505 26-474): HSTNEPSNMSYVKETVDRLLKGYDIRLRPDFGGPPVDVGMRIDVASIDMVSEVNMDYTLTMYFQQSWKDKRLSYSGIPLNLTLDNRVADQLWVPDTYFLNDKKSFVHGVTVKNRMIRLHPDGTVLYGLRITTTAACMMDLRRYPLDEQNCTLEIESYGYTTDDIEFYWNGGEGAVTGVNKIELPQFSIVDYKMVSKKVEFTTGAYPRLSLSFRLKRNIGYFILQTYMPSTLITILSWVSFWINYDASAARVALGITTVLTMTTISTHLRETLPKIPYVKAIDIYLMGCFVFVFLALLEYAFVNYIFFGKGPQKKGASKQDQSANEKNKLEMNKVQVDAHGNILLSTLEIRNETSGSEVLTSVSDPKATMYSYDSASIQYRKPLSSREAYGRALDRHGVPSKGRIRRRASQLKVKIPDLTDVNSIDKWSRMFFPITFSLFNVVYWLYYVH
T1 sequence (P18507 40-475): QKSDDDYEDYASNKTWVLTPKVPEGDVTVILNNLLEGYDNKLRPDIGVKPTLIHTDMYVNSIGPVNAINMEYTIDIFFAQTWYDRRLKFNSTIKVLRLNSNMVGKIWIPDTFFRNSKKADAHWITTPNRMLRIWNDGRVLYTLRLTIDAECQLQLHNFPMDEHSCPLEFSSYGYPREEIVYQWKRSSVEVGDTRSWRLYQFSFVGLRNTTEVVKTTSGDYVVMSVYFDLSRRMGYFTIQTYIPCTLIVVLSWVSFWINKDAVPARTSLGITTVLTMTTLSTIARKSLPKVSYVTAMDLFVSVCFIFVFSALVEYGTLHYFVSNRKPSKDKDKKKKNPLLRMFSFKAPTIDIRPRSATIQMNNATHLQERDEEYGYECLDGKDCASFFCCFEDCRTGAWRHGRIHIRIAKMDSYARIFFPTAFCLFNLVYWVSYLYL

Structure (SMILES)	EC50 [1] [µM]	Hill coefficient of activation by IVM ([1]; absence of GABA)	concentration of apparent maximal effect of IVM ([1]; absence of GABA) [µM]	effect of IVM on uninjected oocytes [2]	effect on GABA response (check of γ subunit incorporation) ([1]; oocytes injected with α1:β1:γ2 1:1:2)
CC(=O)[C@H]1CC[C@H]2[C@@H]3CC[C@H]4C[C@H](O)CC[C@]4(C)[C@H]3CC[C@]12C [ALLOP, 3α-hydroxy-5α-pregnan-20-one]	0.9 ± 0.1				
CCC(C)C1OC2(CCC1C)CC1CC(CC=C(C)C(OC3CC(OC)C(OC4CC(OC)C(O)C(C)O4)C(C)O3)C(C)C=CC=C3COC4C(O)C(C)=CC(C(=O)O1)C34O)O2 (stereo not drawn) [IVM, ivermectin]	7.1 ± 0.8	1.9 ± 0.4	20 to 50	unaffected	
CN1C(=O)CN=C(c2ccccc2)c2cc(Cl)ccc21 [diazepam]					potentiation
